In patent US20120083522A1, “MODULATION OF INFLAMMATORY RESPONSES BY FACTOR XI” (Isis Pharmaceuitcals, inc., priority 2009, published 2012):
In the oligonucleotide strings, read from the 5' end, every base follows the letter of its sugar. An asterisk marks phosphorothioate; unmarked linkages are phosphodiester. Other units and linkages are bracketed, terminal groups are in braces. A string of capitals states the bases alone. e = 2'-O-(2-methoxyethyl) (MOE); [5mC] = 5-methylcytosine; d = 2'-deoxy (DNA)

Columns and labels:
Factor XI mRNA = test: Cynomolgus monkeys, 25 mg/kg: liver Factor XI RNA analysis (Example 30); format: in vivo; conditions: 25 mg/kg s.c.; day 55; liver
Experimental: (§1) Groups, each consisting of two male and two female monkeys, were injected subcutaneously with 25 mg/kg of ISIS 416850, ISIS 449709, ISIS 445522, ISIS 449710, ISIS 449707, ISIS 449711, ISIS 449708, 416858 and ISIS 445531. Antisense oligonucleotide was administered to the monkeys at 25 mg/kg three times per week for week 1 and 25 mg/kg twice per week for weeks 2 to 8. A control group, consisting of two male and two female monkeys was injected subcutaneously with PBS according to the same dosing regimen. Body weights were taken 14 days and 7 days before the start of treatment and were then measured weekly throughout the treatment period. Blood samples were collected 14 days and 5 days before the start of treatment and subsequently several times during the dosing regimen for measurement of various hematologic factors. On day 55, the monkeys were euthanized by exsanguination while under deep anesthesia, and organs harvested for further analysis.
On day 55, RNA was extracted from liver tissue for real-time PCR analysis of Factor XI using primer probe set LTS00301. Results are presented as percent inhibition of Factor XI, relative to PBS control.

Factor XI protein = test: Cynomolgus monkeys: plasma Factor XI protein ELISA (Example 30); format: in vivo; conditions: 25 mg/kg s.c., plasma ELISA
Experimental: as §1
Plasma samples from all monkey groups taken on different days were analyzed by a sandwich-style ELISA assay (Affinity Biologicals Inc.) using an affinity-purified polyclonal anti-Factor XI antibody as the capture antibody and a peroxidase-conjugated polyclonal anti-Factor XI antibody as the detecting antibody. Monkey plasma was diluted 1:50 for the assay. Peroxidase activity was expressed by incubation with the substrate o-phenylenediamine. The color produced was quantified using a microplate reader at 490 nm and was considered to be proportional to the concentration of Factor XI in the samples.
The results are presented in Table 148, expressed as percentage reduction relative to that of the PBS control.

human Factor XI mRNA = test: Dose-dependent inhibition and IC50 in HepG2 cells, microwalk gapmers, electroporation (Example 16); format: cell-based
Experimental: These gapmers were tested at various doses in HepG2 cells. Cells were plated at a density of 20,000 cells per well and transfected using electroporation with 375 nM, 750 nM, 1,500 nM, 3,000 nM, 6,000 nM and 12,000 nM concentrations of antisense oligonucleotide, as specified in Table 54. After a treatment period of approximately 16 hours, RNA was isolated from the cells and Factor XI mRNA levels were measured by quantitative real-time PCR. Human Factor XI primer probe set RTS 2966 was used to measure mRNA levels. Factor XI mRNA levels were adjusted according to total RNA content, as measured by RIBOGREEN. Results are presented as percent inhibition of Factor XI, relative to untreated control cells.
ISIS 416850, ISIS 416858, ISIS 445522, and ISIS 445531 (see Table 52 above) were re-tested in vitro along with the microwalk gapmers under the same conditions described above.
The chimeric antisense oligonucleotides in Table 53 were designed as 3-8-3 MOE, 4-8-4 MOE, 2-10-2 MOE, 3-10-3 MOE, or 4-10-4 MOE gapmers. The 3-8-3 gapmer is 14 nucleotides in length, wherein the central gap segment is comprised of eight 2′-deoxynucleotides and is flanked on both sides (in the 5′ and 3′ directions) by wings comprising three nucleotides each. The 4-8-4 gapmer is 16 nucleotides in length, wherein the central gap segment is comprised of eight 2′-deoxynucleotides and is flanked on both sides (in the 5′ and 3′ directions) by wings comprising four nucleotides each. The 2-10-2 gapmer is 14 nucleotides in length, wherein the central gap segment is comprised of ten 2′-deoxynucleotides and is flanked on both sides (in the 5′ and 3′ directions) by wings comprising two nucleotides each. The 3-10-3 gapmer is 16 nucleotides in length, wherein the central gap segment is comprised of ten 2′-deoxynucleotides and is flanked on both sides (in the 5′ and 3′ directions) by wings comprising three nucleotides each. The 4-10-4 gapmer is 18 nucleotides in length, wherein the central gap segment is comprised of ten 2′-deoxynucleotides and is flanked on both sides (in the 5′ and 3′ directions) by wings comprising four nucleotides each. For each of the motifs (3-8-3, 4-8-4, 2-10-2, 3-10-3, and 4-10-4), each nucleotide in the 5′ wing segment and each nucleotide in the 3′ wing segment has a 2′-MOE modification. The internucleoside linkages throughout each gapmer are phosphorothioate (P═S) linkages. All cytidine residues throughout each gapmer are 5-methylcytidines. “Human Target start site” indicates the 5′-most nucleotide to which the gapmer is targeted in the human sequence. “Human Target stop site” indicates the 3′-most nucleotide to which the gapmer is targeted in the human sequence. Each gapmer listed in Table 53 is targeted to SEQ ID NO: 1 (GENBANK Accession No. NM_000128.3). Each gapmer is Table 53 is also fully cross-reactive with the rhesus monkey Factor XI gene sequence, designated herein as SEQ ID NO: 274 (exons 1-15 GENBANK Accession No. NW—001118167.1). ‘Rhesus monkey start site’ indicates the 5′-most nucleotide to which the gapmer is targeted in the rhesus monkey sequence. ‘Rhesus monkey stop site’ indicates the 3′-most nucleotide to which the gapmer is targeted to the rhesus monkey sequence.
The first two listed gapmers in Table 54 are the original gapmers (ISIS 416850 and ISIS 416858) from which the remaining gapmers were designed via microwalk and are designated by an asterisk.

Row | Substance | % inhibition of Factor XI mRNA in liver relative to the PBS control (Factor XI mRNA) | Inhibition of Factor XI protein relative to the PBS control (Factor XI protein; Day 10) | Inhibition of Factor XI protein relative to the PBS control (Factor XI protein; Day 17) | Inhibition of Factor XI protein relative to the PBS control (Factor XI protein; Day 24) | Inhibition of Factor XI protein relative to the PBS control (Factor XI protein; Day 31) | Inhibition of Factor XI protein relative to the PBS control (Factor XI protein; Day 38) | Inhibition of Factor XI protein relative to the PBS control (Factor XI protein; Day 45) | Inhibition of Factor XI protein relative to the PBS control (Factor XI protein; Day 52) | Inhibition of Factor XI protein relative to the PBS control (Factor XI protein; Day 55) | Inhibition of Factor XI protein relative to the PBS control (Factor XI protein; Day −5) | Inhibition of Factor XI protein relative to the PBS control (Factor XI protein; Day −14) | percent inhibition of Factor XI mRNA (human Factor XI mRNA; electroporation, 375 nM) | percent inhibition of Factor XI mRNA (human Factor XI mRNA; electroporation, 750 nM) | percent inhibition of Factor XI mRNA (human Factor XI mRNA; electroporation, 1,500 nM) | percent inhibition of Factor XI mRNA (human Factor XI mRNA; electroporation, 3,000 nM) | percent inhibition of Factor XI mRNA (human Factor XI mRNA; electroporation, 6,000 nM) | percent inhibition of Factor XI mRNA (human Factor XI mRNA; electroporation, 12,000 nM)
1 | 449707 (antisense e[5mC]*eA*e[5mC]*eA*dG*dT*dT*dT*d[5mC]*dT*dG*dG*e[5mC]*eA*eG*eG) [compound 449707] | 47% | 16% | 19% | 21% | 29% | 28% | 35% | 29% | 32% | 0% | 0% | 7% | 35% | 63% | 73% | 85% | 91%
2 | 449708 (antisense eA*e[5mC]*eA*dG*dT*dT*dT*d[5mC]*dT*dG*dG*e[5mC]*eA*eG) [compound 449708] | 46% | 7% | 15% | 3% | 14% | 9% | 2% | 6% | 6% | 0% | 1% | 0% | 0% | 22% | 33% | 61% | 85%
3 | 449709 (antisense eG*e[5mC]*eA*e[5mC]*dA*dG*dT*dT*dT*d[5mC]*dT*dG*dG*d[5mC]*eA*eG*eG*e[5mC]) [compound 449709] | 69% | 27% | 35% | 44% | 45% | 46% | 48% | 47% | 50% | 0% | 1% | 52% | 71% | 80% | 87% | 92% | 95%
